This note sets out measurements from patent US8288424B2, “Substituted tetrahydroimidazopyridine compounds and the use thereof in the treatment of pain and other conditions” (Gruenenthal GmbH, priority 2008, dated 2012).

pEC50: −log10 of the molar value.

In the first test the target is T1, KCNQ2/3 channels (Homo sapiens, UniProt O43525+O43526).
T1 construct: expressed in transfected cells; host or cells: CHO-K1
The test can be described thus: Fluorescence assay using a voltage-sensitive dye. The note with it: 10 μmol test substance; CHO-K1 cells expressing KCNQ2/3 channels; agonistic activity; read-out: % Stimulation [10 μmol] Average. The class given is cell-based. As to the method: Fluorescence Assay Using a Voltage-Sensitive Dye
Human CHO-K1 cells expressing KCNQ2/3 channels are cultivated adherently at 37° C., 5% CO2 and 95% humidity in cell culture bottles (e.g. 80 cm^2 TC flasks, Nunc) with MEM Alpha Medium (1×, liquid, Invitrogen, #22571), 10% foetal calf serum (FCS) (Invitrogen, #10270-106, heat-inactivated) and the necessary selection antibiotics. Before being spread out for the measurements, the cells are washed with a 1×DPBS buffer without Ca^2+/Mg^2+ (e.g. Invitrogen, #14190-094) and detached from the bottom of the culture vessel by means of Accutase (PAA Laboratories, #L11-007) (incubation with Accutase for 15 min at 37° C.). The cell count then present is determined using a CASY™ cell counter (TCC model, Schärfe System) in order subsequently to apply 20,000 cells/well/100 μl of the described nutrient medium to 96-well measuring plates of the Corning™ CellBIND™ type (flat clear-bottom black polystyrene microplates, #3340). Incubation is then carried out for one hour at room temperature, without gassing or adjusting the humidity, followed by incubation for 24 hours at 37° C., 5% CO2 and 95% humidity.
The voltage-sensitive fluorescent dye from the Membrane Potential Assay Kit (Red bulk format part R8123 for FLIPR, Molecular Devices™) is prepared by dissolving the contents of a vessel of Membrane Potential Assay Kit Red Component A in 200 ml of extracellular buffer (ES buffer, 120 mM NaCl, 1 mM KCl, 10 mM HEPES, 2 mM CaCl2, 2 mM MgCl2, 10 mM glucose; pH 7.4). After removal of the nutrient medium, the cells are washed with 200 μl of ES buffer, then covered with a layer of 100 μl of the dye solution prepared above and incubated for 45 min at room temperature with exclusion of light.
The fluorescence measurements are carried out with a BMG Labtech FLUOstar™ or BMG Labtech POLARstar™ instrument (525 nm excitation, 560 nm emission, bottom-read mode). After incubation of the dye, 50 μl of the substances to be tested in the desired concentrations, or 50 μl of ES buffer for control purposes, are introduced into separate cavities of the measuring plate and incubated for 30 min at room temperature whilst being shielded from light. The fluorescence intensity of the dye is then measured for 5 min and the fluorescence value F1 of each well is thus determined at a given, constant time. 15 μl of a […] KCl solution ([…]) are then added to each well. The change in fluorescence is subsequently measured until all relevant measured values have been obtained (mainly 5-30 min). At a given time after KCl application, a fluorescence value F2 is determined, in this case at the time of the fluorescence peak.
For calculation, the fluorescence intensity F2 is compared with the fluorescence intensity F1, and the agonistic activity of the target compound on the potassium channel is determined therefrom. F2 and F1 are calculated as follows:
[formula] In order to determine whether a substance has an agonistic activity,
[formula] for example, can be compared with
[formula] of control cells.
[formula] is determined by adding to the reaction batch only the buffer solution instead of the substance to be tested, determining the value F1K of the fluorescence intensity, adding the potassium ions as described above and measuring a value F2K of the fluorescence intensity. Then F2K and F1K are calculated as follows:
[formula] A substance has an agonistic activity on the potassium channel when
[formula] is greater than
[formula] Independently of the comparison of
[formula] it is also possible to conclude that a target compound has an agonistic activity if an increase in
[formula] is to be observed as the dosage of the target compound increases. Calculations of EC50 and IC50 values are carried out with the aid of Prism 4 software (GraphPad Software™).
For `Cc1ccccc1C1CCc2nc(C(=O)N3CCN(c4cccc(C(F)(F)F)c4)CC3)cn2C1` (stereo not drawn) [Compound 35, (6-o-Tolyl-5,6,7,8-tetrahydroimidazo[1,2-a]pyridin-2-yl)(4-(3-(trifluoromethyl)-phenyl)piperazin-1-yl)methanone], the activation at 10 µM was 20.9%.
As to `O=C(NC1CC1)c1cn2c(n1)CCC(c1ccc(Oc3ccccc3)cc1)C2` (stereo not drawn) [Compound 26, N-Cyclopropyl-6-(4-phenoxyphenyl)-5,6,7,8-tetrahydroimidazo[1,2-a]pyridine-2-carboxamide], the activation at 10 µM is 17.4%.
`Cc1cc(C2CCc3nc(C(=O)N4CCN(Cc5ccccc5)CC4)cn3C2)ccc1F` (stereo not drawn) [Compound 80, (4-Benzylpiperazin-1-yl)(6-(4-fluoro-3-methylphenyl)-5,6,7,8-tetrahydroimidazo[1,2-a]pyridin-2-yl)methanone]: the activation at 10 µM turned out to be 33.1%.
`Cc1cccc(C2CCc3nc(C(=O)N4CCN(c5cccc(C(F)(F)F)c5)CC4)cn3C2)c1` (stereo not drawn) [Compound 75, (6-m-Tolyl-5,6,7,8-tetrahydroimidazo[1,2-a]pyridin-2-yl)(4-(3-(trifluoromethyl)phenyl)piperazin-1-yl)methanone]: the activation at 10 µM turned out to be 127%.
For `Cc1ccc(N2CCN(C(=O)c3cn4c(n3)CCC(c3ccc(F)c(C)c3)C4)CC2)cc1` (stereo not drawn) [Compound 64, (6-(4-Fluoro-3-methylphenyl)-5,6,7,8-tetrahydroimidazo[1,2-a]pyridin-2-yl)(4-(4-methylphenyl)piperazin-1-yl)methanone], the activation at 10 µM amounted to 46.7%.
Consider `COc1ccc(C2CCc3nc(C(=O)N4CCN(c5cccc(C(F)(F)F)c5)CC4)cn3C2)cc1` (stereo not drawn) [Compound 69, (6-(4-Methoxyphenyl)-5,6,7,8-tetrahydroimidazo[1,2-a]pyridin-2-yl)(4-(3-(trifluoromethyl)phenyl)piperazin-1-yl)methanone], for which the activation at 10 µM was determined as 30.1%.
As to `CCc1ccc(C2CCc3nc(C(=O)NC(C)CCc4ccccc4)cn3C2)cc1` (stereo not drawn) [Compound 52, 6-(4-Ethylphenyl)-N-(4-phenylbutan-2-yl)-5,6,7,8-tetrahydroimidazo[1,2-a]pyridine-2-carboxamide], the activation at 10 µM came to 34.2%.
In the case of `CC(CCc1ccccc1)NC(=O)c1cn2c(n1)CCC(c1cccc(F)c1)C2` (stereo not drawn) [Compound 51, 6-(3-Fluorophenyl)-N-(4-phenylbutan-2-yl)-5,6,7,8-tetrahydroimidazo[1,2-a]pyridine-2-carboxamide], the activation at 10 µM came out at 16.2%.
Turning to `O=C(NCc1ccc2c(c1)OCO2)c1cn2c(n1)CCC(c1cc(C(F)(F)F)cc(C(F)(F)F)c1)C2` (stereo not drawn) [Compound 42, N-(Benzo[d][1,3]dioxol-5-ylmethyl)-6-(3,5-bis(trifluoromethyl)phenyl)-5,6,7,8-tetrahydroimidazo[1,2-a]pyridine-2-carboxamide], the activation at 10 µM worked out at 18.1%.
As to `O=C(c1cn2c(n1)CCC(c1cccc(F)c1)C2)N1CCN(c2cccc(C(F)(F)F)c2)CC1` (stereo not drawn) [Compound 48, (6-(3-Fluorophenyl)-5,6,7,8-tetrahydroimidazo[1,2-a]pyridin-2-yl)(4-(3-(trifluoromethyl)phenyl)piperazin-1-yl)methanone], the activation at 10 µM was 33%.
For `O=C(c1cn2c(n1)CCC(c1cc(C(F)(F)F)cc(C(F)(F)F)c1)C2)N1CCCC1` (stereo not drawn) [Compound 30, (6-(3,5-Bis(trifluoromethyl)phenyl)-5,6,7,8-tetrahydroimidazo[1,2-a]pyridin-2-yl)(pyrrolidin-1-yl)methanone], the activation at 10 µM is 20.9%.
`COc1ccc(OC)c(C2CCc3nc(C(=O)N4CC5(C)CC4CC(C)(C)C5)cn3C2)c1` (stereo not drawn) [Compound 12, (6-(2,5-Dimethoxyphenyl)-5,6,7,8-tetrahydroimidazo[1,2-a]pyridin-2-yl)(1,3,3-trimethyl-6-azabicyclo[3.2.1]octan-6-yl)methanone]: the activation at 10 µM turned out to be 51.8%.
Turning to `COc1cccc(C2CCc3nc(C(=O)N4CCC(Cc5ccccc5)CC4)cn3C2)c1` (stereo not drawn) [Compound 50, (4-Benzylpiperidin-1-yl)(6-(3-methoxyphenyl)-5,6,7,8-tetrahydroimidazo[1,2-a]pyridin-2-yl)methanone], the activation at 10 µM worked out at 25.7%.
On the same count and under the same terms, then `CCc1ccc(C2CCc3nc(C(=O)N4CCC(Cc5ccccc5)CC4)cn3C2)cc1` (stereo not drawn) [Compound 11, (4-Benzylpiperidin-1-yl)(6-(4-ethylphenyl)-5,6,7,8-tetrahydroimidazo[1,2-a]pyridin-2-yl)methanone], with 38.5%; and `Cc1cc(C2CCc3nc(C(=O)N(C)C(C)CCc4cccc(C(F)(F)F)c4)cn3C2)ccc1F` (stereo not drawn) [Compound 87, 6-(4-Fluoro-3-methylphenyl)-N-methyl-N-(4-(3-(trifluoromethyl)phenyl)butan-2-yl)-5,6,7,8-tetrahydroimidazo[1,2-a]pyridine-2-carboxamide], with 48.4%; and `CCc1ccc(C2CCc3nc(C(=O)NCCc4ccccc4)cn3C2)cc1` (stereo not drawn) [Compound 40, 6-(4-Ethylphenyl)-N-phenethyl-5,6,7,8-tetrahydroimidazo[1,2-a]pyridine-2-carboxamide], with 16.6%.
Take `Cc1ccccc1C1CCc2nc(C(=O)N3CCCC3)cn2C1` (stereo not drawn) [Compound 34, Pyrrolidin-1-yl(6-o-tolyl-5,6,7,8-tetrahydroimidazo[1,2-a]pyridin-2-yl)methanone]: the activation at 10 µM amounted to 32.2%.

The same test, now with this note: CHO-K1 cells expressing KCNQ2/3 channels; agonistic activity.
Consider `COc1c(C)cc(C2CCc3nc(C(=O)N4CCC(Cc5ccccc5)CC4)cn3C2)cc1C` (stereo not drawn) [Compound 55, (4-Benzylpiperidin-1-yl)(6-(4-methoxy-3,5-dimethylphenyl)-5,6,7,8-tetrahydroimidazo-[1,2-a]pyridin-2-yl)methanone], for which the negative-log EC50 (pEC50) is 5.27.
Turning to `CCCCNC(=O)c1cn2c(n1)CCC(c1ccc(Oc3ccccc3)cc1)C2` (stereo not drawn) [Compound 19, N-Butyl-6-(4-phenoxyphenyl)-5,6,7,8-tetrahydroimidazo[1,2-a]pyridine-2-carboxamide], the pEC50 was 5.21.
The compound `CCOc1ccccc1N1CCN(C(=O)c2cn3c(n2)CCC(c2cccc(C)c2)C3)CC1` (stereo not drawn) [Compound 45, (4-(2-Ethoxyphenyl)piperazin-1-yl)(6-m-tolyl-5,6,7,8-tetrahydroimidazo[1,2-a]pyridin-2-yl)methanone] had a negative logarithm of the EC50 (pEC50) of 5.10.
`Cc1cc(C2CCc3nc(C(=O)NC(C)CCc4cccc(C(F)(F)F)c4)cn3C2)ccc1F` (stereo not drawn) [Compound 86, 6-(4-Fluoro-3-methylphenyl)-N-(4-(3-(trifluoromethyl)phenyl)butan-2-yl)-5,6,7,8-tetrahydroimidazo[1,2-a]pyridine-2-carboxamide] gave a negative logarithm of the EC50 (pEC50) of 5.92.
On the same count and under the same terms, the same measure for `O=C(NCc1cccnc1)c1cn2c(n1)CCC(c1ccc(Oc3ccccc3)cc1)C2` (stereo not drawn) [Compound 24, 6-(4-Phenoxyphenyl)-N-(pyridin-3-ylmethyl)-5,6,7,8-tetrahydroimidazo[1,2-a]pyridine-2-carboxamide]: 5.21; for `COc1ccc(C2CCc3nc(C(=O)N4CCN(c5cccc(C(F)(F)F)c5)CC4)cn3C2)c(OC)c1` (stereo not drawn) [Compound 46, (6-(2,4-Dimethoxyphenyl)-5,6,7,8-tetrahydroimidazo[1,2-a]pyridin-2-yl)(4-(3-(trifluoromethyl)phenyl)piperazin-1-yl)methanone]: 5.40; for `CCCCCNC(=O)c1cn2c(n1)CCC(c1ccc(Oc3ccccc3)cc1)C2` (stereo not drawn) [Compound 28, N-Pentyl-6-(4-phenoxyphenyl)-5,6,7,8-tetrahydroimidazo[1,2-a]pyridine-2-carboxamide]: 5.03.

As a reminder, the pEC50 is the EC50 on a negative log10 scale, so that one unit is a factor of ten.
